These results are taken from patent publication US10259824B2, “Complement C3d-binding compounds” (The Regents of the University of California, priority 2015, dated 2019).

In data set [1] the target is T1, C3d (Homo sapiens, UniProt P01024).
T1 construct: Further cleavage events yield C3d (the terminal cleavage product of C3); purchased Complement Technology, Inc
The data set can be described thus: Microscale thermophoresis direct binding. Conditions: 10 nM NT647-labeled C3d, MST buffer with 5% DMSO. The method, then:
Microscale thermophoresis. Direct binding of molecules was assayed using a Monolith NT.115 (NanoTemper Technologies GmbH). Purified C3d (Complement Technology, Inc.) was labeled with NT647 dye using the kit from NanoTemper Technologies, and dissolved to 10 nM in MST buffer (50 mM Tris-HCl, 150 mM NaCl, 10 mM MgCl2, 0.05% Tween 20) containing 5% DMSO. A dilution series of each molecule was prepared in MST buffer containing 5% DMSO, and preincubated with 10 nM NT647-labeled C3d for 10 minutes at room temperature in the dark. Samples were loaded into hydrophilic capillary tubes, and measurements were obtained. For each molecule, reported KD values and binding curves represent results from three independent experiments.
Experimental evaluation of C3d binding. In order to validate the hits from vHTS, binding of 49 selected compounds were measured using microscale thermophoresis. All molecules were tested in a concentration-dependent manner; starting at a concentration of 200 μM (most molecules were poorly soluble in aqueous solution above this concentration). Ten molecules were identified that bound to C3d, with binding affinities (KD) ranging between 25-500 μM. The molecular structures and binding curves for top molecules are shown in FIG. 6, and other binding compounds are shown in FIG. 9.
Microscale Thermophoresis: Direct binding of a small number of selected molecules was tested using microscale thermophoresis. […] We used Efb, a protein secreted from Staphylococcus aureus that binds to C3d, as a positive control for binding (KD=3 nM) (see FIG. 11).
For orientation: MST reads how a fluorescent partner responds to local heating, with and without ligand.

Data set [2] in a line: Absorption and fluorescence spectroscopy / fluorescence quantum yield. In kind it is physicochemical. The following applies: for Emission Peak / Excitation Peak / Quantum Yield: acetonitrile. The method, then: Absorption and fluorescence spectroscopy. Stock solutions of C3d-binding compounds (in DMSO) were diluted in spectroscopic grade acetonitrile (Fisher Scientific). The concentration of each sample was adjusted such that the absorption at the excitation wavelength was below 0.2, after correcting with blank acetonitrile solutions containing the same concentration of DMSO as the measured samples. The UV/visible absorption spectra (260-700 nm) were recorded on a JASCO V-670 spectrophotometer (Tokyo, Japan), using quartz cuvettes (1.0 cm path length, 3.0 ml total volume). The emission spectra were collected with a FluoroLog-3 spectrofluorometer (Horiba-Jobin-Yvon, Edison, N.J., USA). All samples were purged with argon prior to the measurements and all measurements were performed at room temperature.
Fluorescence quantum yield measurements. Fluorescence quantum yield values for the small molecules were calculated using one or more standard quantum yield fluorophores. Values were calculated according to Eq. 1.
where R and S subscripts denote reference compound and sample, respectively, Φfl is quantum yield, In is the total integrated fluorescence spectrum intensity obtained from integration of the emission spectra, An is sample absorbance at the excitation wavelength, and nn is the refractive index of the solvent. Reference compounds used for calculation included naphthalene (ΦR=0.23 for EtOH), anthracene (ΦR=0.27 for EtOH), and coumarin 1 (ΦR=0.73 for EtOH). Standard molecule quantum yield measurements were performed in acetonitrile, and solvent-dependent measurements were performed in spectroscopic grade methanol, ethanol, 1-propanol, 1-butanol, ethylene glycol, glycerol, and phosphate buffered saline.
To test the fluorescence dependence on the media viscosity, a protic media was used, i.e., an aqueous buffer and six alcohols with widely varying viscosities.

The target in the next data set is T2, C3d-CR2 interaction (Homo sapiens, UniProt P01024).
T2 construct: Further cleavage events yield C3d (the terminal cleavage product of C3)
T2 sequence (P01024 1002-1303 limits assumed): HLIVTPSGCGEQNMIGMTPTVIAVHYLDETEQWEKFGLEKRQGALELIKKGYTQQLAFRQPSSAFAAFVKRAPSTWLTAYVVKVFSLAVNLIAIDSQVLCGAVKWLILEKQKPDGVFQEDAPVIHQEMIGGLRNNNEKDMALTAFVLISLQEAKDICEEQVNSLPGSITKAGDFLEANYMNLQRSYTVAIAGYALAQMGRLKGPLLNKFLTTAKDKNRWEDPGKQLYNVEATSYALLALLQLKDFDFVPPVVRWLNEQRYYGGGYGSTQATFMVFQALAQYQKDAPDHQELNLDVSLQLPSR
The data set can be described thus: Competitive binding ELISA, C3d-CR2. The following applies: plates coated with CR2. The method, then:
(§1) Competitive binding ELISA: 50 molecules selected from virtual screening were tested for competitive binding against C3d and its interactions with endogenous protein CR2 and bacterial protein Ecb (homolog to Efb) from Staphylococcus aureus. ELISA plates were coated with CR2 or Ecb for 1 hour at 37° C. Plates were washed and blocked, then incubated with serial dilutions of C3d, with and without test molecules. Plates were incubated with a mouse monoclonal antibody against C3d, followed by a horseradish peroxidase-labeled anti-mouse IgG antibody. The amount of labeled antibody (and in turn, C3d) bound was detected via reaction with a substrate solution, followed by spectrophotometric measurement.
For orientation: In an ELISA, binding on a coated surface is turned into a signal by an enzyme label.

The target in another data set is T3, C3d-Ecb interaction (Homo sapiens, UniProt P01024).
T3 construct: Further cleavage events yield C3d (the terminal cleavage product of C3)
T3 sequence (P01024 1002-1303 limits assumed): as above
Kind of data set: Competitive binding ELISA, C3d-Ecb. The arrangement: species or system Staphylococcus aureus. Conditions: plates coated with Ecb. As for the experimental part: as §1

Data set [3] concerns the target T1, C3d. The data set can be described thus: Fluorescence of molecules in the presence of C3d. The following applies: subsaturating concentrations of C3d. The method, then: The fluorescence properties of topperforming molecules in the presence of C3d were also evaluated. Often, when small molecule fluorophores bind to their targets, fluorescence may be quenched, an undesirable property for potential diagnostic molecules. […] Remarkably, Mol4 underwent drastic fluorescence enhancement in the presence of C3d, with up to 5-fold higher fluorescence at subsaturating concentrations of C3d (FIG. 14).

For data set [4] the following is noted: for EtOH; standard fluorophore; cited from earlier work.
Setting [5] is: aqueous buffer and six alcohols.

T1 sequence (P01024 1002-1303 limits assumed): as above

A word on the Kd: it is the constant that tells how readily two partners part at equilibrium. Low values mean a tighter complex, high ones a looser complex. The compound `O=C(Nc1cccc(-c2cc3ccccc3[nH]2)c1)C1CCN(C(=O)C2CC23CCC3)CC1` (stereo not shown) [Mol 4] returned a Kd on C3d [1] of 29 ± 8 µM. For the same compound, in data set [2], the “Emission Peak” value amounted to 380 nm, the “Excitation Peak” value was found to be 315 nm and the “Quantum Yield” value is listed as 0.560.

In the case of `O=C(Nc1nc2ccccc2[nH]1)c1ccc(CNS(=O)(=O)c2ccc(F)c(F)c2F)cc1` [Mol 11], the Kd on C3d [1] is 45 ± 13 µM. In addition, in data set [2], the “Emission Peak” value is recorded as 405 nm, the “Excitation Peak” value amounted to 310 nm and the “Quantum Yield” value turned out to be 0.001.

`Cc1c(-c2ccc(F)cc2)[nH]c2ccc(CNC(=O)c3cc(=O)[nH]c(=O)[nH]3)cc12` [Mol 16] came in with a Kd at C3d [1] of 27 ± 5 µM. Also, in data set [2], the “Emission Peak” value is on record as 385 nm, the “Excitation Peak” value is recorded as 310 nm and the “Quantum Yield” value stood at 0.002.

At C3d [1], `C[C@@H](Oc1ccc2[nH]c3ccccc3c(=O)c2c1)C(=O)NC(=O)NC12CC3CC(CC(C3)C1)C2` [Mol 17] had a Kd of 116 ± 41 µM. For the same compound, in data set [2], the “Emission Peak” value amounted to 500 nm, the “Excitation Peak” value is recorded as 390/405 and the “Quantum Yield” value worked out at 0.984.

Take `CC1Sc2ccc(C(=O)NNC(=O)c3cc(-c4ccco4)nc4ccccc34)cc2NC1=O` (stereo not shown) [Mol 22]: the Kd on C3d [1] came to 183 ± 81 µM. Besides, in data set [2], the “Emission Peak” value is reported as 455 nm, the “Excitation Peak” value is reported as 355 nm and the “Quantum Yield” value stood at 0.044.

Take `Cc1ccc(NC(=O)CSc2nnc3ccc(C(=O)Nc4cccc(F)c4)cn23)c(C)c1` [Mol 35]: at C3d [1], the Kd came out at 417 ± 171 µM. Besides, in data set [2], the “Emission Peak” value came out at 460 nm, the “Excitation Peak” value came to 275 nm and the “Quantum Yield” value turned out to be 0.001. Besides, the “inhibition of C3d-CR2 interaction” value on C3d-CR2 interaction is “inhibit”. Further, the “inhibition of C3d-Ecb interaction” value at C3d-Ecb interaction is reported as “inhibit”.

Take `O=C(Cc1cccc(F)c1)Nc1ccc(N2CCC(NCc3ccc4ncccc4c3)CC2)cc1` [Mol 36]: binding on C3d [1] was characterised by a dissociation constant (Kd) of 132 ± 28 µM. In data set [2], the “Emission Peak” value was determined as 425 nm, the “Excitation Peak” value amounted to 320 nm and the “Quantum Yield” value is listed as 0.017.

In turn, `O=C(NC1CCCc2ccccc21)c1ccc(CN2CCN(CC=Cc3ccccc3)CC2)[nH]c1=O` (stereo not shown) [Mol 42] returned a Kd on C3d [1] of 45 ± 15 µM. Moreover, in data set [2], the “Emission Peak” value worked out at 390 nm, the “Excitation Peak” value came out at 335 nm and the “Quantum Yield” value is listed as 0.011.

Turning to `O=C(Nc1ccc(C(=O)N2CCN(Cc3nc4sc5c(c4c(=O)[nH]3)CCCC5)CC2)s1)C1CC1` [Mol 50], the Kd on C3d [1] came out at 77 µM.

As to `O=C(Nc1cccc(-c2cc3ccccc3[nH]2)c1)C1CCN(C(=O)C2CC23CCC3)CC1` (stereo not shown) [Mol B4], the “fluorescence enhancement in the presence of C3d” value at C3d [3] is given as “up to 5 fold”.

Regarding `Cc1c(-c2ccc(F)cc2)[nH]c2ccc(CNC(=O)c3cc(=O)[nH]c(=O)[nH]3)cc12` [Mol B16], the “dependence of Φfl on solvent polarity” value in data set [2] (setting [5]) is listed as “does not exhibit any dependence on solvent polarity”. Also, the “emission quantum yield at high media viscosity” value in data set [2] (media viscosity about 1,000 cP, protic media) is approximately 0.015. Moreover, in data set [2] (media viscosity about <1 cP, protic media), the “emission quantum yield at low media viscosity” value is “about 0.002”.

Turning to `C[C@@H](Oc1ccc2[nH]c3ccccc3c(=O)c2c1)C(=O)NC(=O)NC12CC3CC(CC(C3)C1)C2` [Mol B17], in data set [2] (listed as Mol17), the “Quantum Yield” value is reported as “close to unity”.

Consider `CC1Sc2ccc(C(=O)NNC(=O)c3cc(-c4ccco4)nc4ccccc34)cc2NC1=O` (stereo not shown) [Mol B22], for which the “inhibition of C3d-CR2 interaction” value at C3d-CR2 interaction is “inhibit”. Also, at C3d-Ecb interaction, the “inhibition of C3d-Ecb interaction” value is recorded as “inhibit”.

Turning to `O=C(NC1CCCc2ccccc21)c1ccc(CN2CCN(CC=Cc3ccccc3)CC2)[nH]c1=O` (stereo not shown) [Mol B42], in data set [2] (setting [5]), the “dependence of Φfl on media viscosity” value is on record as “does not manifest viscosity dependence” and the “dependence of Φfl on solvent polarity” value is on record as “about an order of magnitude increase in Φfl”.

Regarding `Cc1ccc(NC(=O)Cn2nnc(C(=O)Nc3ccc(C)cc3C)c2N)c(C)c1` [Mol B47], the “inhibition of C3d-CR2 interaction” value at C3d-CR2 interaction is “only inhibits the C3d-Ecb interaction”. Also, on C3d-Ecb interaction, the “inhibition of C3d-Ecb interaction” value is reported as “inhibits”.

On to `c1ccc2cc3ccccc3cc2c1` [anthracene], for which the “reference quantum yield ΦR” value in data set [4] was 0.27.

For the compound `CCN(CC)c1ccc2c(C)cc(=O)oc2c1` [coumarin 1], the “reference quantum yield ΦR” value in data set [4] is 0.73.

As to `c1ccc2ccccc2c1` [naphthalene], the “reference quantum yield ΦR” value in data set [4] is reported as 0.23.
